Experimental data from the supplement of paper PMC10307832.

Assays:
Assay in all cases: relative viability (nuclei count vs DMSO), 5 days (fraction); higher = more cells survive
Dovitinib = compound: CN1CCN(c2ccc3nc(-c4c(N)c5c(F)cccc5[nH]c4=O)[nH]c3c2)CC1 [Dovitinib]
In short: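 After an overnight hold at 37 °C, lung cancer cell lines in 1536-well plates were pinned with five library-drug doses (not always all listed), each √10 from the next, on vehicle-anchored plates. The cells stayed 5 days without fresh medium, then a one-step fix, permeabilisation and Hoechst stain preceded 4× imaging and MetaXpress nuclear counts. A plate passed only with control CV under 25% and at least one doubling. Viability is the median, over plates, of treated-well nuclei relative to vehicle-well nuclei.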

Dovitinib + Palbociclib = compound: CN1CCN(c2ccc3nc(-c4c(N)c5c(F)cccc5[nH]c4=O)[nH]c3c2)CC1 [Dovitinib] + CC(=O)c1c(C)c2cnc(Nc3ccc(N4CCNCC4)cn3)nc2n(C2CCCC2)c1=O [Palbociclib] (partner 0.5 µM)
In short: (§1)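 After 5 days of treatment, lung cancer cells in 1536-well plates were fixed and stained in a single step (final 0.05% Triton X-100, 1% formaldehyde, 1 ug/ml Hoechst) and their nuclei counted on 4× images. Treatment had been applied by pin tool the day after seeding as one drug alone or as a fixed anchor-drug dose with five library-drug doses (not always all listed) in √10 steps. Relative viability is the nuclei count of treated wells divided by that of vehicle wells, and values are medians of duplicate plates.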

Dovitinib + Foretinib = compound: CN1CCN(c2ccc3nc(-c4c(N)c5c(F)cccc5[nH]c4=O)[nH]c3c2)CC1 [Dovitinib] + COc1cc2c(Oc3ccc(NC(=O)C4(C(=O)Nc5ccc(F)cc5)CC4)cc3F)ccnc2cc1OCCCN1CCOCC1 [Foretinib] (partner 0.25 µM)
In short: as §1

Dovitinib + OSI-027 = compound: CN1CCN(c2ccc3nc(-c4c(N)c5c(F)cccc5[nH]c4=O)[nH]c3c2)CC1 [Dovitinib] + COc1cccc2cc(-c3nc([C@H]4CC[C@H](C(=O)O)CC4)n4ncnc(N)c34)[nH]c12 [OSI-027] (partner 0.5 µM)
In short: as §1

Cell Line | relative viability (Dovitinib; 0.02 µM) | relative viability (Dovitinib; 0.06325 µM) | relative viability (Dovitinib; 0.2 µM) | relative viability (Dovitinib; 0.6325 µM) | relative viability (Dovitinib; 2 µM) | relative viability (Dovitinib + Palbociclib; first compound 0.02 µM) | relative viability (Dovitinib + Palbociclib; first compound 0.06325 µM) | relative viability (Dovitinib + Palbociclib; first compound 0.2 µM) | relative viability (Dovitinib + Palbociclib; first compound 0.6325 µM) | relative viability (Dovitinib + Palbociclib; first compound 2 µM) | relative viability (Dovitinib + Foretinib; first compound 0.02 µM) | relative viability (Dovitinib + Foretinib; first compound 0.06325 µM) | relative viability (Dovitinib + Foretinib; first compound 0.2 µM) | relative viability (Dovitinib + Foretinib; first compound 0.6325 µM) | relative viability (Dovitinib + Foretinib; first compound 2 µM) | relative viability (Dovitinib + OSI-027; first compound 0.02 µM) | relative viability (Dovitinib + OSI-027; first compound 0.06325 µM) | relative viability (Dovitinib + OSI-027; first compound 0.2 µM) | relative viability (Dovitinib + OSI-027; first compound 0.6325 µM) | relative viability (Dovitinib + OSI-027; first compound 2 µM)
NCI-H23 | 1.01 | 1.03 | 1.07 | 1.02 | 0.952 | 0.482 | 0.58 | 0.574 | 0.515 | 0.541 | 0.899 | 0.913 | 1.09 | 0.962 | 0.983 | 0.486 | 0.599 | 0.665 | 0.605 | 0.534
NCI-H322M | 0.885 | 0.926 | 0.918 | 0.977 | 0.97 | 0.46 | 0.471 | 0.468 | 0.482 | 0.487 | 0.95 | 0.898 | 0.941 | 0.923 | 0.869 | 0.518 | 0.526 | 0.557 | 0.502 | 0.608
NCI-H358 | 0.9 | 0.995 | 0.918 | 0.989 | 0.907 | 0.153 | 0.141 | 0.118 | 0.135 | 0.135 | 0.619 | 0.674 | 0.683 | 0.626 | 0.761 | 0.703 | 0.769 | 0.905 | 0.819 | 0.739
NCI-H441 | 1.08 | 1.11 | 1.04 | 1.07 | 1.06 | 0.22 | 0.195 | 0.212 | 0.221 | 0.194 | 0.832 | 1.08 | 0.774 | 1.11 | 1.05 | 0.639 | 0.565 | 0.682 | 0.61 | 0.644
NCI-H460 | 0.982 | 1.02 | 0.993 | 0.985 | 0.964 | 0.147 | 0.226 | 0.159 | 0.163 | 0.142 | 1 | 1.03 | 1.12 | 0.918 | 1.03 | 0.587 | 0.842 | 0.708 | 0.708 | 0.721
NCI-H520 | 1.01 | 1.02 | 0.944 | 0.976 | 0.955 | 0.206 | 0.213 | 0.214 | 0.266 | 0.162 | 0.698 | 0.894 | 0.818 | 0.733 | 0.698 | 0.279 | 0.248 | 0.334 | 0.244 | 0.23
NCI-H647 | 0.957 | 0.991 | 1.04 | 0.991 | 0.949 | 0.337 | 0.427 | 0.378 | 0.402 | 0.431 | 1.23 | 1.15 | 1.39 | 1.17 | 1.26 | 0.608 | 0.758 | 0.817 | 0.657 | 0.802
NCI-H650 | 0.97 | 0.883 | 1 | 0.927 | 1.03 | 0.321 | 0.333 | 0.359 | 0.317 | 0.357 | 0.955 | 1.02 | 1.1 | 1 | 1.15 | 0.503 | 0.515 | 0.538 | 0.521 | 0.565
NCI-H661 | 0.988 | 0.993 | 1.04 | 1.03 | 1.06 | 0.414 | 0.453 | 0.429 | 0.426 | 0.432 | 1.05 | 1 | 1.08 | 1.07 | 1.12 | 0.689 | 0.706 | 0.753 | 0.732 | 0.729
NCI-H727 | 1.1 | 0.782 | 0.968 | 0.989 | 0.921 | 0.667 | 0.62 | 0.669 | 0.671 | 0.668 | 0.815 | 0.689 | 0.747 | 0.799 | 0.706 | 0.778 | 0.434 | 0.589 | 0.653 | 0.548
NCI-H838 | 0.935 | 1 | 1.01 | 0.95 | 0.966 | 0.231 | 0.209 | 0.217 | 0.217 | 0.228 | 1.05 | 1.02 | 1.04 | 0.937 | 0.961 | 0.324 | 0.41 | 0.385 | 0.37 | 0.471
NCI-H1355 | 1.04 | 0.931 | 1.04 | 0.989 | 1.07 | 0.416 | 0.41 | 0.465 | 0.397 | 0.415 | 0.943 | 0.932 | 0.713 | 0.976 | 0.903 | 0.443 | 0.386 | 0.392 | 0.48 | 0.388
NCI-H1395 | 0.99 | 0.849 | 0.959 | 0.827 | 1.15 | 0.608 | 0.575 | 0.661 | 0.605 | 0.652 | 1.07 | 1.12 | 0.935 | 0.947 | 1.02 | 0.637 | 0.706 | 0.682 | 0.651 | 0.672
NCI-H1437 | 0.973 | 1.03 | 0.971 | 1.04 | 1.02 | 0.305 | 0.301 | 0.321 | 0.32 | 0.321 | 1.24 | 1.29 | 1.22 | 1.2 | 1.27 | 0.877 | 0.881 | 0.867 | 0.903 | 0.916
NCI-H1650 | 0.949 | 0.998 | 0.987 | 0.93 | 1.05 | 0.392 | 0.338 | 0.328 | 0.349 | 0.386 | 1.44 | 1.21 | 0.998 | 0.819 | 0.972 | 0.687 | 0.619 | 0.621 | 0.711 | 0.768
